Assay: Hygroscopicity (moisture uptake) test of metformin salts
Type: physicochemical
Details: 25°C, 10 days; for hygroscopicity compared with metformin: 75% RH and 93% RH; for moisture-absorption weight increase: 75% RH (saturated NaCl) and 93% RH (saturated KNO3), sampled on day 5 and day 10

Row | hygroscopicity compared with metformin | moisture-absorption weight increase | SMILES
1 | 吸湿性が顕著に低下した | – | CN(C)C(=N)N=C(N)N.O=C(O)c1ccc2ccccc2c1O [メトホルミンと1-ヒドロキシ-2-ナフトエ酸塩]
2 | 吸湿性が顕著に低下した | < 5% | CN(C)C(=N)NC(=N)N.O=C(O)c1ccc2ccccc2c1 [メトホルミンと2-ナフトエ酸塩]
3 | 吸湿性が顕著に低下した | < 5% | CN(C)C(=N)NC(=N)N.O=C(O)c1cc2ccccc2cc1O [メトホルミンと2-ヒドロキシ-3-ナフトエ酸塩form2]
4 | 吸湿性が顕著に低下した | < 5% | CN(C)C(=N)N=C(N)N.O=C(O)c1cc2ccccc2cc1O [メトホルミンと2-ヒドロキシ-3-ナフトエ酸塩form1]
5 | 吸湿性が顕著に低下した | < 5% | CN(C)C(=N)N=C(N)N.Oc1cccc2c(O)cccc12 [メトホルミンと1,5-ジヒドロキシナフタレン, メトホルミンと1,5-ジヒドロキシナフタレン塩]
6 | 吸湿性が顕著に低下した | < 5% | CN(C)C(=N)NC(=N)N.O=C(O)Cc1cccc2ccccc12 [メトホルミンと1-ナフタレン酢酸塩]
